Measurements reported in US4110165A, “Process for the production of clavulanic acid” (Beecham Group Limited, priority 1974, dated 1978).
In brackets after ≈: the same amount, converted by molar mass. Structures can show the parent of a compound that is named as a salt.

Key:
Klebsiella aerogenes A [1] = assay: Antibacterial synergism MIC, microtiter method (Example 42); assay type: cell-based; details: unit not given; method of Example 42
[2] = system: Klebsiella aerogenes E 70; assay: as above; assay type: cell-based; details: unit not given; method of Example 42
Klebsiella aerogenes 62 = assay: as above; assay type: cell-based; details: unit not given; method of Example 42
[3] = system: Staphylococcus aureus (Russell); assay: M.I.C. synergism with clavulanic acid methyl ester (Example 32); assay type: cell-based
Proteus mirabilis C889 = assay: as above; assay type: cell-based
Klebsiella aerogenes A [4] = assay: Growth inhibition, penicillins with and without synergist; assay type: cell-based
Staphylococcus aureus = assay: Antibacterial synergism MIC, microtiter method (Example 42); assay type: cell-based; details: method of Example 42
Bacillus subtilis A = assay: MIC, method of Example 30 with 1/100 dilution of overnight broth (Example 46)
Experimental: (§1) The cultures were incubated overnight and the points of bacterial growth recorded next morning by observing the turbidity of the culture.

Staph. aureus Oxford = assay: as above; details: Staphylococcus aureus
Experimental: as §1

Staph. aureus Russell = assay: as above; details: Staphylococcus aureus
Experimental: as §1

Escherichia coli 10418 = assay: as above
Experimental: as §1

bacteria = assay: Tests for antibacterial activity in broth (Example 32); assay type: cell-based
[5] = Blood and tissue levels in female mice; assay type: in vivo; details: oral administration of 100 mg/kg
Stability in human blood = assay type: in vitro ADME

In the case of `CC1(C)S[C@@H]2[C@H](NC(=O)[C@H](N)c3ccccc3)C(=O)N2[C@H]1C(=O)O` [Ampicillin, ampicillin], the “M.I.C., Ampicillin + 5 μg/ml of Benzyl Ester of clavulanic acid” value (Klebsiella aerogenes A [1]) is reported as 1.9, the “M.I.C., Ampicillin + 5 μg/ml of Methyl Ester of clavulanic acid” value (Klebsiella aerogenes A [1]) is reported as 1.9 and the “M.I.C., Ampicillin + 5 μg/ml of Benzyl Ester of clavulanic acid” value [2] is reported as 3.9. The “M.I.C., Ampicillin + 5 μg/ml of Methyl Ester of clavulanic acid” value [2] was 3.9, the “M.I.C., Ampicillin + 5 μg/ml of Benzyl Ester of clavulanic acid” value (Klebsiella aerogenes 62) was 3.9 and the “M.I.C., Ampicillin + 5 μg/ml of Methyl Ester of clavulanic acid” value (Klebsiella aerogenes 62) was 3.9. For the same molecule, the “M.I.C. in the presence of 1.0 μg/ml. clavulanic acid methyl ester” value [3] was less than 0.4 µg/mL and the “M.I.C. in the presence of 5 μg/ml. clavulanic acid methyl ester” value (Proteus mirabilis C889) was 31 µg/mL.

For `CC1(C)S[C@@H]2[C@H](NC(=O)Cc3ccccc3)C(=O)N2[C@H]1C(=O)O` [Benzylpenicillin, benzylpenicillin], the “concentration inhibiting growth when 5 μg/ml. of clavulanic acid is also present” value (Klebsiella aerogenes A [4]) was “less than 12.5 μg/ml”.

With `O=C(Cc1cccs1)N[C@@H]1C(=O)N2C(C(=O)[O-])=C(C[n+]3ccccc3)CS[C@H]12` [Cephaloridine, cephaloridine] the “Minimum Inhibitory Concentration in presence of 5μg/ml clavulanic acid sodium salt” value (Staphylococcus aureus) was 3.7 µg/mL and the “M.I.C. in the presence of 1.0 μg/ml. clavulanic acid methyl ester” value [3] was less than 0.03 µg/mL.

Molecule `O=C1OC(OC(=O)[C@H]2/C(=C/CO)O[C@@H]3CC(=O)N32)c2ccccc21` (some centres unmarked) [Phthalidyl ester, Clavulanic Acid Phthalide Esters] has an MIC (Bacillus subtilis A) of 125 µg/mL (≈ 377 µM), an MIC (Staph. aureus Oxford) of 31 µg/mL (≈ 93.6 µM) and an MIC (Staph. aureus Russell) of 15 µg/mL (≈ 45.3 µM). For the same molecule, the MIC (Escherichia coli 10418) was 125 µg/mL (≈ 377 µM).

Molecule `O=C(OCc1ccccc1)[C@H]1/C(=C/CO)O[C@@H]2CC(=O)N21` [clavulanic acid benzyl ester, benzyl ester of 3-(β-hydroxyethylidine)-7-oxo-4-oxa-1-azabicyclo [3,2,0]heptane-2-carboxylic acid] has an MIC (Escherichia coli 10418) of 125 µg/mL (≈ 432 µM).

With `COC(=O)[C@H]1/C(=C/CO)O[C@@H]2CC(=O)N21` [clavulanic acid methyl ester] the “antibacterial activity in broth” value (bacteria) was “broad spectrum activity but of a lower order than shown by clavulanic acid”.

With `O=C(O)[C@H]1/C(=C/CO)O[C@@H]2CC(=O)N21` [clavulanic acid sodium salt, 3-(β-hydroxyethylidine)-7-oxo-4-oxa-1-azabicyclo [3,2,0]heptane-2-carboxylic acid sodium salt] the “levels of clavulanic acid after oral administration” value [5] was “useful levels” and the MIC (Escherichia coli 10418) was 125 µg/mL.

With `O=C(O)[C@H]1/C(=C/CO)O[C@@H]2CC(=O)N21` [clavulanic acid, Z-(2R,5R)-3-(β-hydroxyethylidene)-7-oxo-4-oxa-1-azabicyclo[3,2,0]heptane-2-carboxylic acid] the “stability in human blood” value (Stability in human blood) was “high stability”.
